Data from PubChem BioAssay (NCI).
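Dose response: 5 concentrations. Exposure: 48 h. Format: 96-well plates. Endpoint: linear interpolation; highest concentration if not reached. Here, GI50 denotes the concentration required for 50% inhibition of growth. TGI is the concentration that stops growth completely.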

Key:
Test in all cases: NCI tumour cell line growth inhibition, 48 h; in the data active means GI50 below about 0.43 µM; inactive means the rest
786-0 renal = test system: 786-0 renal
A498 renal = test system: A498 renal
A549 NSCLC = test system: A549 NSCLC
ACHN renal = test system: ACHN renal
BT-549 breast = test system: BT-549 breast
CAKI-1 renal = test system: CAKI-1 renal
COLO 205 colon = test system: COLO 205 colon
DU-145 prostate = test system: DU-145 prostate
EKVX NSCLC = test system: EKVX NSCLC
HCT-116 colon = test system: HCT-116 colon
HCT-15 colon = test system: HCT-15 colon
HOP-62 NSCLC = test system: HOP-62 NSCLC
HOP-92 NSCLC = test system: HOP-92 NSCLC
HS 578T breast = test system: HS 578T breast
HT29 colon = test system: HT29 colon
K-562 leukemia = test system: K-562 leukemia
KM12 colon = test system: KM12 colon
LOX IMVI melanoma = test system: LOX IMVI melanoma
M14 melanoma = test system: M14 melanoma
MALME-3M melanoma = test system: MALME-3M melanoma
MCF7 breast = test system: MCF7 breast
MDA-MB-435 = test system: MDA-MB-435
MOLT-4 leukemia = test system: MOLT-4 leukemia
NCI-H23 lung = test system: NCI-H23 lung
NCI-H460 lung = test system: NCI-H460 lung
NCI/ADR-RES ovarian = test system: NCI/ADR-RES ovarian
OVCAR-3 ovarian = test system: OVCAR-3 ovarian
OVCAR-4 ovarian = test system: OVCAR-4 ovarian
OVCAR-5 ovarian = test system: OVCAR-5 ovarian
OVCAR-8 ovarian = test system: OVCAR-8 ovarian
PC-3 prostate = test system: PC-3 prostate
RXF 393 renal = test system: RXF 393 renal
SF-268 CNS = test system: SF-268 CNS
SF-295 CNS = test system: SF-295 CNS
SF-539 CNS = test system: SF-539 CNS
SK-MEL-28 melanoma = test system: SK-MEL-28 melanoma
SK-MEL-5 melanoma = test system: SK-MEL-5 melanoma
SK-OV-3 ovarian = test system: SK-OV-3 ovarian
SNB-19 CNS = test system: SNB-19 CNS
SNB-75 CNS = test system: SNB-75 CNS
SW-620 colon = test system: SW-620 colon
T-47D breast = test system: T-47D breast
TK-10 renal = test system: TK-10 renal
U251 CNS = test system: U251 CNS
UACC-257 melanoma = test system: UACC-257 melanoma
CCRF-CEM leukemia = test system: CCRF-CEM leukemia
HCC-2998 colon = test system: HCC-2998 colon
HL-60(TB) leukemia = test system: HL-60(TB) leukemia
IGROV1 ovarian = test system: IGROV1 ovarian
MDA-MB-231 breast = test system: MDA-MB-231 breast
NCI-H226 lung = test system: NCI-H226 lung
SK-MEL-2 melanoma = test system: SK-MEL-2 melanoma
SN12C renal = test system: SN12C renal
SR leukemia = test system: SR leukemia
UO-31 renal = test system: UO-31 renal

COc1cc2c3c(n(C)c(=O)c2cc1OC)-c1cc2c(cc1/C3=C\CCCN1C(=O)c3ccccc3C1=O)OCO2
24.7 µM: TGI (PC-3 prostate)
inactive: GI50 (786-0 renal) > 40 µM | GI50 (A498 renal) > 40 µM | GI50 (A549 NSCLC) 22 µM | GI50 (ACHN renal) 8.67 µM | GI50 (BT-549 breast) 8.26 µM | GI50 (CAKI-1 renal) 5.44 µM | GI50 (COLO 205 colon) > 40 µM | GI50 (DU-145 prostate) 6.73 µM | GI50 (EKVX NSCLC) 5.2 µM | GI50 (HCT-116 colon) 26.2 µM | GI50 (HCT-15 colon) > 40 µM | GI50 (HOP-62 NSCLC) 19.2 µM | GI50 (HOP-92 NSCLC) 2.12 µM | GI50 (HS 578T breast) > 40 µM | GI50 (HT29 colon) > 40 µM | GI50 (K-562 leukemia) 15 µM | GI50 (KM12 colon) 5.1 µM | GI50 (LOX IMVI melanoma) 20.8 µM | GI50 (M14 melanoma) > 40 µM | GI50 (MALME-3M melanoma) > 40 µM | GI50 (MCF7 breast) 6.94 µM | GI50 (MDA-MB-435) > 40 µM | GI50 (MOLT-4 leukemia) 1.18 µM | GI50 (NCI-H23 lung) > 40 µM | GI50 (NCI-H460 lung) 4.76 µM | GI50 (NCI/ADR-RES ovarian) > 40 µM | GI50 (OVCAR-3 ovarian) > 40 µM | GI50 (OVCAR-4 ovarian) > 40 µM | GI50 (OVCAR-5 ovarian) > 40 µM | GI50 (OVCAR-8 ovarian) 23.8 µM | GI50 (PC-3 prostate) 4.79 µM | GI50 (RXF 393 renal) > 40 µM | GI50 (SF-268 CNS) 14.2 µM | GI50 (SF-295 CNS) 3.61 µM | GI50 (SF-539 CNS) 8.99 µM | GI50 (SK-MEL-28 melanoma) > 40 µM | GI50 (SK-MEL-5 melanoma) 21.7 µM | GI50 (SK-OV-3 ovarian) > 40 µM | GI50 (SNB-19 CNS) > 40 µM | GI50 (SNB-75 CNS) 27.8 µM | GI50 (SW-620 colon) 13.5 µM | GI50 (T-47D breast) > 40 µM | GI50 (TK-10 renal) > 40 µM | GI50 (U251 CNS) 12.8 µM | GI50 (UACC-257 melanoma) > 40 µM
5.17 µM: TGI (MOLT-4 leukemia)
> 40 µM: TGI (786-0 renal) | TGI (A498 renal) | TGI (A549 NSCLC) | TGI (ACHN renal) | TGI (BT-549 breast) | TGI (CAKI-1 renal) | TGI (COLO 205 colon) | TGI (DU-145 prostate) | TGI (EKVX NSCLC) | TGI (HCT-116 colon) | TGI (HCT-15 colon) | TGI (HOP-62 NSCLC) | TGI (HS 578T breast) | TGI (HT29 colon) | TGI (K-562 leukemia) | TGI (KM12 colon) | TGI (LOX IMVI melanoma) | TGI (M14 melanoma) | TGI (MALME-3M melanoma) | TGI (MCF7 breast) | TGI (MDA-MB-435) | TGI (NCI-H23 lung) | TGI (NCI-H460 lung) | TGI (NCI/ADR-RES ovarian) | TGI (OVCAR-3 ovarian) | TGI (OVCAR-4 ovarian) | TGI (OVCAR-5 ovarian) | TGI (OVCAR-8 ovarian) | TGI (RXF 393 renal) | TGI (SF-268 CNS) | TGI (SF-295 CNS) | TGI (SF-539 CNS) | TGI (SK-MEL-28 melanoma) | TGI (SK-MEL-5 melanoma) | TGI (SK-OV-3 ovarian) | TGI (SNB-19 CNS) | TGI (SNB-75 CNS) | TGI (SW-620 colon) | TGI (T-47D breast) | TGI (TK-10 renal) | TGI (U251 CNS) | TGI (UACC-257 melanoma)
13.4 µM: TGI (HOP-92 NSCLC)

COc1cc(/C=C/c2cc(/C=C/c3ccc(O)c(OC)c3)n(-c3ccccc3)n2)ccc1O
active: GI50 (A549 NSCLC) 0.405 µM | GI50 (CAKI-1 renal) 0.33 µM | GI50 (CCRF-CEM leukemia) 0.127 µM | GI50 (DU-145 prostate) 0.399 µM | GI50 (HL-60(TB) leukemia) 0.271 µM | GI50 (HOP-62 NSCLC) 0.404 µM | GI50 (HS 578T breast) 0.157 µM | GI50 (KM12 colon) 0.315 µM | GI50 (MCF7 breast) 0.265 µM | GI50 (MDA-MB-435) 0.0415 µM | GI50 (MOLT-4 leukemia) 0.347 µM | GI50 (NCI-H226 lung) 0.382 µM | GI50 (NCI-H23 lung) 0.197 µM | GI50 (NCI/ADR-RES ovarian) 0.0874 µM | GI50 (OVCAR-3 ovarian) 0.266 µM | GI50 (PC-3 prostate) 0.332 µM | GI50 (RXF 393 renal) 0.258 µM | GI50 (SK-MEL-2 melanoma) 0.266 µM | GI50 (SK-MEL-28 melanoma) 0.386 µM | GI50 (SK-MEL-5 melanoma) 0.252 µM | GI50 (SK-OV-3 ovarian) 0.334 µM | GI50 (SN12C renal) 0.313 µM | GI50 (SR leukemia) 0.0353 µM | GI50 (UO-31 renal) 0.287 µM
1.36 µM: TGI (SK-MEL-5 melanoma)
1.27 µM: TGI (SK-OV-3 ovarian)
2.46 µM: TGI (HCC-2998 colon)
2.6 µM: TGI (T-47D breast)
4.25 µM: TGI (HOP-92 NSCLC)
1.82 µM: TGI (A498 renal)
4.72 µM: TGI (UACC-257 melanoma)
22.8 µM: TGI (BT-549 breast)
1.52 µM: TGI (HOP-62 NSCLC)
2.2 µM: TGI (SN12C renal)
2 µM: TGI (NCI-H23 lung)
2.03 µM: TGI (SK-MEL-2 melanoma)
12.7 µM: TGI (PC-3 prostate)
> 100 µM: TGI (CCRF-CEM leukemia) | TGI (MOLT-4 leukemia) | TGI (SR leukemia)
4.95 µM: TGI (OVCAR-4 ovarian)
1.53 µM: TGI (UO-31 renal)
0.191 µM: TGI (MDA-MB-435)
3.85 µM: TGI (NCI/ADR-RES ovarian)
2.16 µM: TGI (A549 NSCLC)
3.7 µM: TGI (EKVX NSCLC)
1.29 µM: TGI (KM12 colon)
1.4 µM: TGI (DU-145 prostate)
> 23.2 µM: TGI (HS 578T breast)
3.31 µM: TGI (COLO 205 colon)
3.55 µM: TGI (OVCAR-8 ovarian)
0.774 µM: TGI (HL-60(TB) leukemia)
1.83 µM: TGI (786-0 renal) | TGI (NCI-H226 lung)
inactive: GI50 (786-0 renal) 0.582 µM | GI50 (A498 renal) 0.575 µM | GI50 (BT-549 breast) 0.631 µM | GI50 (COLO 205 colon) 1.77 µM | GI50 (EKVX NSCLC) 1.12 µM | GI50 (HCC-2998 colon) 0.605 µM | GI50 (HOP-92 NSCLC) 0.452 µM | GI50 (HT29 colon) 0.724 µM | GI50 (IGROV1 ovarian) 0.532 µM | GI50 (MDA-MB-231 breast) 0.557 µM | GI50 (OVCAR-4 ovarian) 0.536 µM | GI50 (OVCAR-5 ovarian) 1.27 µM | GI50 (OVCAR-8 ovarian) 0.466 µM | GI50 (T-47D breast) 0.645 µM | GI50 (TK-10 renal) 0.563 µM | GI50 (UACC-257 melanoma) 1.22 µM
0.938 µM: TGI (OVCAR-3 ovarian)
4.1 µM: TGI (HT29 colon)
7.26 µM: TGI (CAKI-1 renal)
2.72 µM: TGI (SK-MEL-28 melanoma)
1.7 µM: TGI (MCF7 breast)
0.888 µM: TGI (RXF 393 renal)
4.51 µM: TGI (OVCAR-5 ovarian)
4.02 µM: TGI (IGROV1 ovarian)
6.94 µM: TGI (MDA-MB-231 breast)
1.99 µM: TGI (TK-10 renal)
